Assay results reported in PubChem BioAssay AID248 (DTP/NCI, 2004).
Toxic doses and inconclusive results are not listed.

System: L1210 leukemia ip in BDF1 mice, survival T/C
Experiment: NCI In Vivo Anticancer Drug Screen. Data for tumor model L1210 Leukemia (intraperitoneal) in B6D2F1 (BDF1) mice
Conditions: endpoint: mean survival time, higher = longer survival
Outline: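 Read-out is survival time, reported as the treated-group measurement over the vehicle-control measurement.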

[1] = dose: 100.0 mg/kg/injection, schedule: Q01DX001 (ip), vehicle: saline
[2] = dose: 200.0 mg/kg/injection, schedule: Q01DX001 (ip), vehicle: saline
[3] = dose: 400.0 mg/kg/injection, schedule: Q01DX001 (ip), vehicle: saline

With `CC(=O)Nc1ccc2nc3ccc(NC(C)=O)cc3[n+](-c3ccccc3)c2c1` the T/C (dose: 0.25 mg/kg/injection, schedule: Q01DX Z (ip), vehicle: methylcellulose (MC)) was 105 % of control, the T/C (dose: 0.5 mg/kg/injection, schedule: Q01DX Z (ip), vehicle: methylcellulose (MC)) was 121 % of control and the T/C (dose: 0.75 mg/kg/injection, schedule: Q01DX009 (ip), vehicle: saline) was 111 % of control. The T/C (dose: 1.25 mg/kg/injection, schedule: Q#A X Z (ip), vehicle: saline) was 89 % of control, the T/C (dose: 1.5 mg/kg/injection, schedule: Q01DX009 (ip), vehicle: saline) was 114 % of control and the T/C (dose: 2.5 mg/kg/injection, schedule: Q01DX Z (ip), vehicle: saline) was 98 % of control. For the same molecule, the T/C (dose: 2.5 mg/kg/injection, schedule: Q#A X Z (ip), vehicle: saline) was 109 % of control, the T/C (dose: 3.0 mg/kg/injection, schedule: Q01DX009 (ip), vehicle: saline) was 122 % of control and the T/C (dose: 4.4 mg/kg/injection, schedule: Q07DX Z (ip), vehicle: saline) was 105 % of control. For the same molecule, the T/C (dose: 5.0 mg/kg/injection, schedule: Q01DX Z (ip), vehicle: saline) was 118 % of control, the T/C (dose: 5.0 mg/kg/injection, schedule: Q#A X Z (ip), vehicle: saline) was 123 % of control and the T/C (dose: 6.0 mg/kg/injection, schedule: Q01DX009 (ip), vehicle: saline) was 120 % of control. For the same molecule, the T/C (dose: 7.5 mg/kg/injection, schedule: Q03DX Z (ip), vehicle: saline) was 111 % of control, the T/C (dose: 8.8 mg/kg/injection, schedule: Q07DX Z (ip), vehicle: saline) was 110 % of control and the T/C (dose: 10.0 mg/kg/injection, schedule: Q01DX009 (sc), vehicle: propolene glycol) was 97 % of control. The T/C (dose: 10.0 mg/kg/injection, schedule: Q01DX015 (ip), vehicle: propolene glycol) was 152 % of control, the T/C (dose: 12.5 mg/kg/injection, schedule: Q01DX Z (ip), vehicle: methylcellulose (MC)) was 150 % of control and the T/C (dose: 15.0 mg/kg/injection, schedule: Q03DX Z (ip), vehicle: saline) was 118 % of control. For the same molecule, the T/C (dose: 17.5 mg/kg/injection, schedule: Q07DX Z (ip), vehicle: saline) was 115 % of control, the T/C (dose: 20.0 mg/kg/injection, schedule: Q01DX010 (sc), vehicle: propolene glycol) was 96 % of control and the T/C (dose: 20.0 mg/kg/injection, schedule: Q01DX Z (ip), vehicle: saline) was 123 % of control. For the same molecule, the T/C (dose: 20.0 mg/kg/injection, schedule: Q#A X Z (ip), vehicle: saline) was 180 % of control, the T/C (dose: 25.0 mg/kg/injection, schedule: Q01DX Z (ip), vehicle: methylcellulose (MC)) was 166 % of control and the T/C (dose: 31.25 mg/kg/injection, schedule: Q01DX009 (ip), vehicle: saline) was 164 % of control. The T/C (dose: 31.3 mg/kg/injection, schedule: Q01DX009 (ip), vehicle: saline) was 161 % of control, the T/C (dose: 40.0 mg/kg/injection, schedule: Q01DX010 (sc), vehicle: propolene glycol) was 102 % of control and the T/C (dose: 40.0 mg/kg/injection, schedule: Q01DX015 (ip), vehicle: propolene glycol) was 172 % of control. For the same molecule, the T/C (dose: 40.0 mg/kg/injection, schedule: Q01DX Z (ip), vehicle: saline) was 172 % of control, the T/C (dose: 50.0 mg/kg/injection, schedule: Q01DX009 (ip), vehicle: saline) was 162 % of control and the T/C (dose: 50.0 mg/kg/injection, schedule: Q01DX Z (ip), vehicle: methylcellulose (MC)) was 100 % of control. For the same molecule, the T/C (dose: 64.0 mg/kg/injection, schedule: Q01DX010 (iv), vehicle: saline) was 97 % of control, the T/C (dose: 80.0 mg/kg/injection, schedule: Q01DX009 (oral), vehicle: propolene glycol) was 98 % of control and the T/C (dose: 80.0 mg/kg/injection, schedule: Q01DX009 (sc), vehicle: propolene glycol) was 95 % of control. The T/C (dose: 100.0 mg/kg/injection, schedule: Q01DX009 (ip), vehicle: saline) was 206 % of control, the T/C (dose: 120.0 mg/kg/injection, schedule: Q01DX009 (oral), vehicle: propolene glycol) was 98 % of control and the T/C (dose: 120.0 mg/kg/injection, schedule: Q03DX Z (ip), vehicle: saline) was 159 % of control. For the same molecule, the T/C (dose: 128.0 mg/kg/injection, schedule: Q01DX010 (iv), vehicle: saline) was 102 % of control, the T/C (dose: 175.0 mg/kg/injection, schedule: Q01DX001 (ip), vehicle: saline) was 105 % of control and the T/C (dose: 222.0 mg/kg/injection, schedule: Q01DX Z (oral), vehicle: saline) was 116 % of control. For the same molecule, the T/C (dose: 256.0 mg/kg/injection, schedule: Q01DX010 (iv), vehicle: saline) was 108 % of control, the T/C (dose: 265.0 mg/kg/injection, schedule: Q01DX001 (ip), vehicle: saline) was 108 % of control and the T/C (dose: 270.0 mg/kg/injection, schedule: Q01DX009 (oral), vehicle: propolene glycol) was 98 % of control. For the same molecule, the T/C (dose: 333.0 mg/kg/injection, schedule: Q01DX Z (oral), vehicle: saline) was 120 % of control, the T/C (dose: 405.0 mg/kg/injection, schedule: Q01DX009 (oral), vehicle: propolene glycol) was 102 % of control and the T/C (dose: 480.0 mg/kg/injection, schedule: Q03DX Z (ip), vehicle: saline) was 112 % of control. For the same molecule, the T/C (dose: 960.0 mg/kg/injection, schedule: Q03DX Z (ip), vehicle: saline) was 86 % of control.

For `COCc1c(COc2ccc(Cl)cc2)n(C)c2ccccc12`, the T/C (dose: 100.0 mg/kg/injection, schedule: Q04DX002 (ip), vehicle: Klucel (hydroxypropylcellulose) (HPC)) was 101 % of control, the T/C (dose: 200.0 mg/kg/injection, schedule: Q04DX002 (ip), vehicle: Klucel (hydroxypropylcellulose) (HPC)) was 92 % of control and the T/C (dose: 400.0 mg/kg/injection, schedule: Q04DX002 (ip), vehicle: Klucel (hydroxypropylcellulose) (HPC)) was 99 % of control.

With `Cc1ccc(N=NC2C(=O)c3ccccc3C2=O)cc1` the T/C (dose: 50.0 mg/kg/injection, schedule: Q01DX001 (ip), vehicle: saline) was 100 % of control, the T/C [1] was 100 % of control and the T/C [2] was 97 % of control. The T/C [3] was 103 % of control.

`O=C(Nc1cccc(S(=O)(=O)F)c1)c1ccc(COc2ccc([N+](=O)[O-])cc2Cl)cc1` was tested, and the T/C (dose: 100.0 mg/kg/injection, schedule: Q01DX009 (ip), vehicle: saline sonified) was 100 % of control, the T/C (dose: 100.0 mg/kg/injection, schedule: Q04DX003 (ip), vehicle: saline with Tween-80) was 97 % of control and the T/C (dose: 200.0 mg/kg/injection, schedule: Q01DX009 (ip), vehicle: saline sonified) was 100 % of control. The T/C (dose: 200.0 mg/kg/injection, schedule: Q04DX003 (ip), vehicle: saline with Tween-80) was 100 % of control, the T/C (dose: 400.0 mg/kg/injection, schedule: Q01DX009 (ip), vehicle: saline sonified) was 94 % of control and the T/C (dose: 400.0 mg/kg/injection, schedule: Q04DX003 (ip), vehicle: saline with Tween-80) was 94 % of control.

`OCCCNc1nc2ccc(Br)cc2c2ccccc12` was tested, and the T/C (dose: 100.0 mg/kg/injection, schedule: Q01DX009 (ip), vehicle: Klucel (hydroxypropylcellulose) (HPC)) was 100 % of control, the T/C (dose: 100.0 mg/kg/injection, schedule: Q04DX003 (ip), vehicle: Klucel (hydroxypropylcellulose) (HPC)) was 108 % of control and the T/C (dose: 200.0 mg/kg/injection, schedule: Q01DX009 (ip), vehicle: Klucel (hydroxypropylcellulose) (HPC)) was 89 % of control. The T/C (dose: 200.0 mg/kg/injection, schedule: Q04DX003 (ip), vehicle: Klucel (hydroxypropylcellulose) (HPC)) was 102 % of control, the T/C (dose: 400.0 mg/kg/injection, schedule: Q01DX009 (ip), vehicle: Klucel (hydroxypropylcellulose) (HPC)) was 95 % of control and the T/C (dose: 400.0 mg/kg/injection, schedule: Q04DX003 (ip), vehicle: Klucel (hydroxypropylcellulose) (HPC)) was 102 % of control.

For `CC1(CS(=O)(=O)c2ccccc2)C(=O)C2CCC1C2` (centres undefined), the T/C [1] was 90 % of control, the T/C (dose: 100.0 mg/kg/injection, schedule: Q04DX003 (ip), vehicle: saline) was 94 % of control and the T/C [2] was 98 % of control. The T/C (dose: 200.0 mg/kg/injection, schedule: Q04DX003 (ip), vehicle: saline) was 89 % of control, the T/C [3] was 88 % of control and the T/C (dose: 400.0 mg/kg/injection, schedule: Q04DX003 (ip), vehicle: saline) was 98 % of control.

With `O=C(/C=C/c1ccc(Cl)cc1)NCC(O)CO` (centres undefined) the T/C (dose: 150.0 mg/kg/injection, schedule: Q04DX003 (ip), vehicle: water) was 100 % of control, the T/C (dose: 300.0 mg/kg/injection, schedule: Q04DX003 (ip), vehicle: water) was 105 % of control and the T/C (dose: 600.0 mg/kg/injection, schedule: Q04DX003 (ip), vehicle: water) was 102 % of control.
